Laboratory results published in patent publication EP4707280A1, “1,4-CINEOLE DERIVATIVE AND INTERMEDIATE THEREOF, HERBICIDE CONTAINING SAID DERIVATIVE AS ACTIVE INGREDIENT, METHOD FOR USING HERBICIDE, AND METHOD FOR PREPARING AGROCHEMICAL COMPOSITION” (HOKKO CHEMICAL INDUSTRY CO., LTD., priority 2023, dated 2024).

Tests used:
Format in all cases: in vivo
[1] = tested on: Echinochloa crus-galli; assay: Test Example 4: herbicidal effect test by stem and leaf treatment in upland field; details: Echinochloa crus-galli; 120 g per 10 ares; sprayed seven days after sowing, upland soil; 14 days after application; read-out: weed inhibition rate
[2] = tested on: Digitaria ciliaris; assay: Test Example 3: herbicidal effect test by soil application in upland field; details: Digitaria ciliaris, 120 g per 10 ares, sprayed one day after sowing, 14 days after application, read-out: weed inhibition rate
Method in brief: (§1)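 Weed inhibition (%) was assessed 14 days after treatment, in duplicate per concentration group. Seeds had been mixed into the upper 1 cm of upland alluvial loam, and the soil surface was sprayed one day later with the diluted emulsifiable concentrate at 120 g active ingredient per 10 ares.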

[3] = tested on: Amaranthus viridis; assay: as above; details: Amaranthus viridis, 120 g per 10 ares, sprayed one day after sowing, 14 days after application, read-out: weed inhibition rate
Method in brief: as §1

[4] = tested on: Echinochloa crus-galli; assay: as above; details: Echinochloa crus-galli, 120 g per 10 ares, sprayed one day after sowing, 14 days after application, read-out: weed inhibition rate
Method in brief: as §1

[5] = tested on: Echinochloa crus-galli var. formosensis; assay: Test Example 5: herbicidal effect test by soil application in paddy rice (low dose); details: Echinochloa crus-galli, soil, 336 h; 7.5 g per 10 ares; applied immediately after sowing, flooded pots; 14 days after application; read-out: weed inhibition rate
Method in brief: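 Paddy-soil pots, weeds sown 0–1 cm deep and flooded to about 3 cm in a greenhouse. Emulsifiable concentrate diluted in water and dropped in right after sowing at 7.5 g active ingredient per 10 ares. Duplicates; effect scored 14 days after application.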

[6] = tested on: Echinochloa crus-galli var. formosensis; assay: Test Example 6: herbicidal effect test by application during growth period of paddy rice (low dose); details: Echinochloa crus-galli; 7.5 g per 10 ares; applied seven days after sowing, flooded pots; 14 days after application; read-out: weed inhibition rate
Method in brief: (§2)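 Emulsifiable concentrate, water-diluted, dropped onto flooded paddy pots 7 days post-sowing at 7.5 g active ingredient/10 a. Greenhouse-grown weeds; percent inhibition scored at day 14 after treatment.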

[7] = tested on: Digitaria ciliaris; assay: Test Example 7: herbicidal effect test by soil application in upland field (low dose); details: Digitaria ciliaris, 7.5 g per 10 ares, sprayed one day after sowing, 14 days after application, read-out: weed inhibition rate
Method in brief: (§3)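 Upland alluvial loam pots, seeds mixed into top 1 cm of soil; one day after sowing, diluted emulsifiable concentrate sprayed on soil at 100 L/10 a, giving 7.5 g active ingredient/10 a. Duplicate pots; weed inhibition rate (%) scored 14 days after application.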

[8] = tested on: Echinochloa crus-galli; assay: as above; details: Echinochloa crus-galli, 7.5 g per 10 ares, sprayed one day after sowing, 14 days after application, read-out: weed inhibition rate
Method in brief: as §3

[9] = tested on: Scirpus juncoides; assay: Test Example 6: herbicidal effect test by application during growth period of paddy rice (low dose); details: Schoenoplectiella juncoides; 7.5 g per 10 ares; applied seven days after sowing, flooded pots; 14 days after application; read-out: weed inhibition rate
Method in brief: as §2

[10] = tested on: Monochoria vaginalis; assay: as above; details: Pontederia vaginalis; 7.5 g per 10 ares; applied seven days after sowing, flooded pots; 14 days after application; read-out: weed inhibition rate
Method in brief: as §2

CCOC(C)O[C@H]1C[C@]2(C)O[C@@]1(C(C)C)C[C@H]2OCc1ccccc1C (stereo partly drawn) [1-208, (1R,2S,4S,5R)-2-(1-ethoxyethoxy)-1-isopropyl-4-methyl-5-((2-methylbenzyl)oxy)-7-oxabicyclo[2.2.1]heptane]
≥ 80%: inhibition at 1200 g/ha [1] | inhibition at 1200 g/ha [2] | inhibition at 1200 g/ha [3] | inhibition at 1200 g/ha [4] | inhibition at 75 g/ha [5] | inhibition at 75 g/ha [6] | inhibition at 75 g/ha [7] | inhibition at 75 g/ha [8]

CC(C)[C@]12C=C[C@](C)(O1)[C@H](OCc1c(F)cccc1F)C2 [3-7, (1R,4S,5R)-5-[(2,6-difluorophenyl)methoxy]-4-methyl-1-isopropyl-7-oxabicyclo[2.2.1]hept-2-ene]
≥ 80%: inhibition at 1200 g/ha [1] | inhibition at 1200 g/ha [2] | inhibition at 1200 g/ha [4] | inhibition at 75 g/ha [5] | inhibition at 75 g/ha [6] | inhibition at 75 g/ha [9] | inhibition at 75 g/ha [7] | inhibition at 75 g/ha [8]

CC(C)[C@]12C[C@@H](OCc3ccccc3F)[C@](C)(C/C1=N\O)O2 [2-197, (1R,4S,5R,E)-5-((2-fluorobenzyl)oxy)-1-isopropyl-4-methyl-7-oxabicyclo[2.2.1]heptan-2-one oxime]
≥ 80%: inhibition at 1200 g/ha [1] | inhibition at 1200 g/ha [2] | inhibition at 1200 g/ha [3] | inhibition at 1200 g/ha [4] | inhibition at 75 g/ha [5] | inhibition at 75 g/ha [10] | inhibition at 75 g/ha [6] | inhibition at 75 g/ha [7] | inhibition at 75 g/ha [8]

CC(C)C1C[C@]2(C)O[C@@]1(C(C)C)C[C@H]2OCc1ccccc1F (stereo partly drawn) [1-133, (1S,2R,4R)-2-[(2-fluorobenzyl)oxy]-4,5-isopropyl-1-methyl-7-oxabicyclo[2.2.1]heptane]
≥ 80%: inhibition at 1200 g/ha [1] | inhibition at 1200 g/ha [2] | inhibition at 1200 g/ha [4] | inhibition at 75 g/ha [5] | inhibition at 75 g/ha [10] | inhibition at 75 g/ha [6] | inhibition at 75 g/ha [7] | inhibition at 75 g/ha [8]

CC(C)[C@]12C[C@@H](OCc3c(F)cccc3Cl)[C@](C)(CC1=O)O2 [2-28, (1R,4S,5R)-5-((2-chloro-6-fluorobenzyl)oxy)-1-isopropyl-4-methyl-7-oxabicyclo[2.2.1]heptan-2-one]
≥ 80%: inhibition at 1200 g/ha [1] | inhibition at 1200 g/ha [2] | inhibition at 1200 g/ha [4] | inhibition at 75 g/ha [5] | inhibition at 75 g/ha [10] | inhibition at 75 g/ha [6] | inhibition at 75 g/ha [7] | inhibition at 75 g/ha [8]

CC(C)[C@]12C[C@@H](OCc3ccccc3Br)[C@](C)(C[C@@H]1Br)O2 [1-694, (1S,2R,4R,5S)-5-bromo-2-[(2-bromophenyl)methoxy]-1-methyl-4-isopropyl-7-oxabicyclo[2.2.1]heptane]
≥ 80%: inhibition at 1200 g/ha [1] | inhibition at 1200 g/ha [2] | inhibition at 1200 g/ha [3] | inhibition at 1200 g/ha [4] | inhibition at 75 g/ha [5] | inhibition at 75 g/ha [10] | inhibition at 75 g/ha [6] | inhibition at 75 g/ha [7] | inhibition at 75 g/ha [8]

CCOC(C)O[C@H]1C[C@]2(C)O[C@@]1(C(C)C)C[C@H]2OCc1c(F)cccc1F (stereo partly drawn) [1-223, (1S,2R,4R,5S)-2-((2,6-difluorobenzyl)oxy)-5-(1-ethoxyethoxy)-4-isopropyl-1-methyl-7-oxabicyclo[2.2.1]heptane]
≥ 80%: inhibition at 1200 g/ha [1] | inhibition at 1200 g/ha [2] | inhibition at 1200 g/ha [3] | inhibition at 1200 g/ha [4] | inhibition at 75 g/ha [5] | inhibition at 75 g/ha [6] | inhibition at 75 g/ha [7] | inhibition at 75 g/ha [8]

CC(C)[C@]12C[C@@H](OCc3c(F)cccc3Br)[C@](C)(C[C@@H]1Br)O2 [1-1600, (1S,2R,4R,5S)-5-bromo-2-[(2-bromo-6-fluorophenyl)methoxy]-1-methyl-4-isopropyl-7-oxabicyclo[2.2.1]heptane]
≥ 80%: inhibition at 1200 g/ha [1] | inhibition at 1200 g/ha [2] | inhibition at 1200 g/ha [4] | inhibition at 75 g/ha [5] | inhibition at 75 g/ha [10] | inhibition at 75 g/ha [6] | inhibition at 75 g/ha [7] | inhibition at 75 g/ha [8]

CC(C)[C@]12C[C@@H](OCc3cccs3)[C@](C)(C[C@@H]1Br)O2 [1-721, (1S,2R,4R,5S)-5-bromo-1-methyl-4-isopropyl-2-(thiophen-2-ylmethoxy)-7-oxabicyclo[2.2.1]heptane]
≥ 80%: inhibition at 1200 g/ha [1] | inhibition at 1200 g/ha [2] | inhibition at 1200 g/ha [4] | inhibition at 75 g/ha [5] | inhibition at 75 g/ha [10] | inhibition at 75 g/ha [6] | inhibition at 75 g/ha [7] | inhibition at 75 g/ha [8]

Cc1ccccc1CO[C@@H]1C[C@]2(C(C)C)O[C@@]1(C)C/C2=N\O [2-191, (1R,4S,5R,E)-1-isopropyl-4-methyl-5-((2-methylbenzyl)oxy)-7-oxabicyclo[2.2.1]heptan-2-one oxime]
≥ 80%: inhibition at 1200 g/ha [1] | inhibition at 1200 g/ha [2] | inhibition at 1200 g/ha [4] | inhibition at 75 g/ha [5] | inhibition at 75 g/ha [10] | inhibition at 75 g/ha [6] | inhibition at 75 g/ha [7] | inhibition at 75 g/ha [8]

CC(C)[C@]12C[C@@H](OCc3ccccc3F)[C@](C)(C[C@@H]1I)O2 [1-753, (1S,2R,4R,SS)-2-[(2-fluorophenyl)methoxy]-5-iodo-1-methyl-4-isopropyl-7-oxabicyclo[2.2.1]heptane]
≥ 80%: inhibition at 1200 g/ha [1] | inhibition at 1200 g/ha [2] | inhibition at 1200 g/ha [3] | inhibition at 1200 g/ha [4] | inhibition at 75 g/ha [5] | inhibition at 75 g/ha [10] | inhibition at 75 g/ha [6] | inhibition at 75 g/ha [7] | inhibition at 75 g/ha [8]

CC(C)[C@]12C[C@@H](OCc3ccccc3Cl)[C@](C)(C[C@@H]1Br)O2 [1-20, (1S,2R,4R,5S)-5-bromo-2-[(2-chlorophenyl)methoxy]-1-methyl-4-isopropyl-7-oxabicyclo[2.2.1]heptane]
≥ 80%: inhibition at 1200 g/ha [1] | inhibition at 1200 g/ha [2] | inhibition at 1200 g/ha [4] | inhibition at 75 g/ha [5] | inhibition at 75 g/ha [10] | inhibition at 75 g/ha [6] | inhibition at 75 g/ha [7] | inhibition at 75 g/ha [8]

CC(C)[C@]12C[C@@H](OCc3ccccc3F)[C@](C)(CC1C)O2 (stereo partly drawn) [1-92, (1S,2R,4R)-2-((2-fluorobenzyl)oxy)-4-isopropyl-1,5-dimethyl-7-oxabicyclo[2.2.1]heptane]
≥ 80%: inhibition at 1200 g/ha [1] | inhibition at 1200 g/ha [2] | inhibition at 1200 g/ha [4] | inhibition at 75 g/ha [5] | inhibition at 75 g/ha [10] | inhibition at 75 g/ha [6] | inhibition at 75 g/ha [7] | inhibition at 75 g/ha [8]

CCCO[C@H]1C[C@]2(C)O[C@@]1(C(C)C)C[C@H]2OCc1ccccc1F [1-1604, (1S,2R,4R,SS)-2-[(2-fluorophenyl)methoxy]-1-methyl-4-isopropyl-5-propoxy-7-oxabicyclo[2.2.1]heptane]
≥ 80%: inhibition at 1200 g/ha [1] | inhibition at 1200 g/ha [2] | inhibition at 1200 g/ha [4] | inhibition at 75 g/ha [5] | inhibition at 75 g/ha [10] | inhibition at 75 g/ha [6] | inhibition at 75 g/ha [7] | inhibition at 75 g/ha [8]
